Target: T1, human NPY Y5 receptors (Homo sapiens, UniProt Q15761)
T1 construct: expressed in transfected cells; host or cells: HEK-293
T1 sequence (Q15761 1-445): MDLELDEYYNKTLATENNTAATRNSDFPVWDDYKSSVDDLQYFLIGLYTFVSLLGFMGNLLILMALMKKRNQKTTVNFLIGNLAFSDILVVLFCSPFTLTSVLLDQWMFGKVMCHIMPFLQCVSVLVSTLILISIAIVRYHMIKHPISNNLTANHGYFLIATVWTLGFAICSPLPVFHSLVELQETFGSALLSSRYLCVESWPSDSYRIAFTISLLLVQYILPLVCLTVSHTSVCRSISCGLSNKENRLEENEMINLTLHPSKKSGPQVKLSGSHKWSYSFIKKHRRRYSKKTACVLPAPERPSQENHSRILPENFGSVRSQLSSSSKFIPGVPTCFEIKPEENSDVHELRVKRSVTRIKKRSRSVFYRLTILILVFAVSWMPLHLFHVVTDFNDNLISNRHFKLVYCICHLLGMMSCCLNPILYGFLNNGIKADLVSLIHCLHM
Experiment: Inhibition of [125I]-PYY binding to HEK-293 cells expressing human NPY Y5 receptors
Settings: HEK-293 cells stably expressing human NPY Y5 receptors, 25° C., 120 minutes
Procedure: Effects on binding ability of PYY(peptide YY) to HEK(human embryo kidneys)-293 cells transducted with human NPY(neuropeptide Y) Y5 receptors
HEK-293 cells, which stably manifest human NPY Y5 receptors, were incubated at 25° C. for 120 minutes in the […] of test compounds in an assay medium containing 0.1 mM PMSF (phenylmethylsulfonyl fluoride), 0.05% bacitracin, 0.1% BSA (bovine serum albumin) and 25mM Tris HCl (pH 7.4). The non-specific binding was measured in the presence of […] non-labelled PYY. The reaction was terminated by rapidly filtering with Wattmann GF/C glass fiber filter with using the cell harvester. After the glass fiber filter was washed with 150 mM sodium chloride and 25 mM Tris HCl buffer solution (pH 7.4) containing 0.01% BSA, radioactivity of the […] was measured by using the γ-counter. The IC50 value of the test compound was determined by the inhibition of [^125I]-PYY binding obtained by the test compound at various concentrations. The test compound is represented with the Example number in which the compound was obtained.

| IC50 [µM] | Compound |
| --- | --- |
| 0.12 | COc1ccc2c(c1)-c1nc(-c3ccccn3)[nH]c1CCC2 [8 (3), 9-Methoxy-2-(pyridin-2-yl)-3,4,5,6-tetrahydro-1,3-diazabenzo[e]azulene] |
| 0.061 | c1ccc(-c2nc3c([nH]2)CCOc2ccccc2-3)cc1 [8 (15), 2-Phenyl-4,5-dihydro-3H[l]benzoxepino[4,5-d]imidazole] |
| 0.0058 | c1ccc(-c2nc3c([nH]2)-c2ccccc2CCC3)cc1 [8 (5), 2-Phenyl-5,6-dihydro-4H-1,3-diazabenzo[e]azulene] |
| 0.0064 | Cc1ccc2c(c1)-c1[nH]c(-c3ccncc3)nc1CCC2 [8 (14), 2-(Pyridin-4-yl)-5,6-dihydro-9-methyl-4H-1,3-diazabenzo[e]azulene] |
| 0.032 | Cc1ccc2c(c1)-c1[nH]c(-c3ccccn3)nc1CCC2 [8 (12), 2-(Pyridin-2-yl)-5,6-dihydro-9-methyl-4H-1,3-diazabenzo[e]azulene] |
| 0.013 | COc1ccc2c(c1)-c1nc(-c3ccncc3)[nH]c1CCC2 [Example 7, 9-methoxy-2-(pyridin-4-yl)-3,4,5,6-tetrahydro-1,3-diazabenzo[e]azulene] |
| 0.013 | Fc1ccc2c(c1)-c1[nH]c(-c3ccncc3)nc1CCC2 [10 (2), 9-Fluoro-2-(pyridin-4-yl)-5,6-dihydro-4H-1,3-diazabenzo[e]azulene] |
| 0.051 | COc1ccc2c(c1)-c1nc(-c3ccccc3)[nH]c1CC2 [8 (4), 8-Methoxy-2-phenyl-4,5-dihydronaphtho[1,2-d]imidazole] |
| 0.046 | Fc1ccc2c(c1)-c1[nH]c(-c3ccccn3)nc1CCC2 [Example 9, 9-fluoro-2-(pyridin-2-yl)-5,6-dihydro-4H-1,3-diazabenzo[e]azulene] |
| 0.0023 | Cc1ccc2c(c1)-c1[nH]c(-c3cccnc3)nc1CCC2 [8 (13), 2-(Pyridin-3-yl)-5,6-dihydro-9-methyl-4H-1,3-diazabenzo[e]azulene] |
| 0.13 | c1ccc(-c2nc3c([nH]2)-c2ccccc2CCC3)nc1 [8 (6), 2-(Pyridin-2-yl)-5,6-dihydro-4H-1,3-diazabenzo[e]azulene] |
| 0.55 | c1ccc2c(c1)CCCc1[nH]c(-c3c[nH]cn3)nc1-2 [8 (11)] |
| 0.024 | COc1ccc2c(c1)-c1c(nc(-c3ccccc3)n1O)CCC2 [2 (1), 9-Methoxy-2-phenyl-5,6-dihydro-4H-1,3-diazabenzo[e]azulen-1-ol] |
| 0.025 | COc1ccc2c(c1)-c1nc(-c3ccccc3)[nH]c1CCC2 [8 (1), 9-Methoxy-2-phenyl-3,4,5,6-tetrahydro-1,3-diazabenzo[e]azulene] |
| 0.0073 | c1cncc(-c2nc3c([nH]2)-c2ccccc2CCC3)c1 [8 (7), 2-(Pyridin-3-yl)-5,6-dihydro-4H-1,3-diazabenzo[e]azulene] |
| 0.26 | CC(C)n1nc(-c2nc3c([nH]2)-c2ccccc2CCC3)ccc1=O [8 (10), 2-(1-Isopropyl-6-oxo-1,6-dihydropyridazin-3-yl)-5,6-dihydro-4H-1,3-diazabenzo[e]azulene] |
| 0.0017 | Clc1ccc2c(c1)-c1[nH]c(-c3ccccc3)nc1CCC2 [Example 11, 9-chloro-2-phenyl-5,6-dihydro-4H-1,3-diazabenzo[e]azulene] |
| 0.073 | COc1ccc2c(c1)-c1c(nc(-c3ccncc3)n1O)CCC2 [Example 1, 9-methoxy-2-(pyridin-4-yl)-5,6-dihydro-4H-1,3-diazabenzo[e]azulen-1-ol] |
| 0.0069 | Fc1ccc2c(c1)-c1nc(-c3cccnc3)[nH]c1CCC2 [10 (1), 9-Fluoro-2-(pyridin-3-yl)-5,6-dihydro-4H-1,3-diazabenzo[e]azulene] |
| 0.0063 | COc1ccc2c(c1)-c1nc(-c3cccnc3)[nH]c1CCC2 [8 (2), 9-Methoxy-2-(pyridin-3-yl)-3,4,5,6-tetrahydro-1,3-diazabenzo[e]azulene] |
| 0.02 | c1ccc2c(c1)CCCc1nc(-c3ccncc3)[nH]c1-2 [8 (8), 2-(Pyridin-4-yl)-5,6-dihydro-4H-1,3-diazabenzo[e]azulene] |
| 0.18 | c1ccc2c(c1)CCCc1nc(-c3ccc4c(c3)OCCO4)[nH]c1-2 [8 (9), 2-(1,4-Benzodioxan-6-yl)-5,6-dihydro-4H-1,3-diazabenzo[e]azulene] |

Reference: patent US20040198791A1 (priority 2001, published 2004)
